From publication PMC10674865, “Identification and Pharmacological Characterization of a Low-Liability Antinociceptive Bifunctional MOR/DOR Cyclic Peptide” (Molecules, 2023)
Marks after values point to notes of the source that are not given here. Positions of bridges follow the written chain, without caps; N, C: chain ends. Non-standard residues stand in square brackets, D forms with d. Residues, ends and D or L forms follow the SMILES beside them. 2Abz = Nc1ccccc1C(=O)O; Dap = NC[C@H](N)C(=O)O

Tests used:
C57BL/6J male mice = assay: 55 °C warm water tail-withdrawal (WWTW) assay, antinociception; format: in vivo, mouse
Procedure: The 55 °C warm water tail-withdrawal assay was performed, as previously described, [52] to screen the library. Mixed-based samples were dissolved at a concentration of 5 mg/mL in saline containing 10% DMSO. Each sample was given to mice (n = 8) intraperitoneally (i.p.) at a dose of 5 mg/kg. At 0.5, 1, 2, 3.5, 5, 8 h post-administration of the samples, the tail-withdrawal latencies were measured for each sample. The average response time to tail-withdrawal at the six time points were then combined. The combined response time to withdrawal tail was used to determine the antinociceptive effect of each sample. A cutoff of 15 s was used to avoid tissue damage; those mice failing to withdraw their tails within this time were assigned a maximal antinociceptive score of 100%.
To determine antinociceptive activity of individual compounds, the tail-withdrawal latency was determined repeatedly every 10 min, following administration of the compounds for 1 h or until latencies returned to baseline values. At each time point, antinociception was calculated according to the following formula: % antinociception = 100 × (test latency − control latency)/(15 − control latency). Tail-withdrawal data points are the means of 8–16 mice, unless otherwise indicated, with SEM shown by error bars.
Percent antinociception was used to determine within-group effects and to allow comparison to baseline latency in tail-withdrawal experiments. The statistical significance of differences between ED50 values was determined by evaluation of the ED50 value shift via nonlinear regression modeling with Prism 10.0 software. Significant differences in behavioral data were analyzed by ANOVA (one-way or two-way with repeated measures (RM), as appropriate). Significant results were further analyzed with Sidak’s, Tukey’s, or Dunnett’s multiple comparison post hoc tests, as appropriate. All data are presented as mean ± SEM, with significance set at p < 0.05.

C57BL/6J mice [1] = assay: Respiration rate in CLAMS apparatus; format: in vivo, mouse; details: CycloAnt 3.0 or 10.6 mg/kg i.p.; morphine 10 or 30 mg/kg i.p.; 120 min period
Procedure: (§1) Male C57Bl/6J mice were tested for respiratory effects using automated, computer-controlled Comprehensive Lab Animal Monitoring System (CLAMS) apparatus. Mice (n = 8) were habituated in closed apparatus cages (23.5 × 11.5 × 13 cm^3) for 30 min before being administrated with the hit i.p. at the experimented high dose of 3.0 mg/kg, and an even higher dose at 15 times of the ED50 value, 10.6 mg/kg, i.p. Mice were then returned to chambers, and their respiration rate (breaths/min) was measured for […] in 30 s intervals using a pressure transducer built into the enclosed, sealed CLAMS cage. The resultant change in pressure during mouse breathing was recorded to reveal the respiration rate (breaths/min).
(§2) Infrared beams located in the floor measured locomotion as the number of beam breaks. Respiration and locomotive data were averaged over 20 min periods for 120 min post-injection of the test compound. Data are presented as % vehicle response ± SEM, ambulation or breaths per minute.

C57BL/6J mice [2] = assay: Ambulation (hyperlocomotion) in CLAMS apparatus; format: in vivo, mouse; details: for Effect on ambulation (hyperlocomotion): CycloAnt 3 or 10.6 mg/kg i.p., morphine 10 or 30 mg/kg i.p., 120 min
Procedure: as §1, §2

mice [3] = assay: Opioid-induced hyperalgesia, 48 °C warm water tail-withdrawal assay; format: in vivo, mouse; details: for Day 5 tail withdrawal latency, 48 °C warm water stimulus: after twice daily dosing for 4 days (morphine 10 mg/kg, CycloAnt 3 mg/kg i.p.), before day 5 dose, day 1 baselines 10 ± 1.14 s (morphine group), 9.1 ± 0.68 s (CycloAnt group), mean ± SEM, SEM; for Opioid-induced hyperalgesia after chronic administration: twice daily for 4 days, morphine 10 mg/kg, CycloAnt 3 mg/kg i.p., 48 °C
Procedure: The 48 °C warm water tail-withdrawal assay was performed as previously described, with the latency to withdraw the tail taken as the end point. The water temperature of 48 °C was selected for this work to ensure a moderate tail-withdrawal response, with a measurable decrease in withdrawal time possible, but also a significant temperature for hyperalgesic testing. […] After determining control latencies on day 1, mice received chronic morphine (10 mg/kg, i.p.) or CycloAnt (3 mg/kg, i.p.) treatment twice a day for 4 days, as described below. […] Mice were then tested prior to treatment on day 5 for evidence of induced hyperalgesia.

mice [4] = assay: Antinociceptive tolerance after chronic dosing, 55 °C WWTW; format: in vivo, mouse; details: twice daily for 4 days, morphine 10 mg/kg (tested 30 min), CycloAnt 3 mg/kg i.p. (tested 20 min)
Procedure: (§3) Mice were randomly assigned to one of three groups and given saline (i.p.; n = 10), morphine (10 mg/kg, i.p.; n = 10) or CycloAnt (3 mg/kg, i.p.; n = 9) twice daily for 4 days, and once more on the morning of the fifth day. Mice were then tested in the 55 °C WWTW assay to assess for the loss of therapeutic efficacy (antinociceptive tolerance; see above). Two hours after this test, naloxone (10 mg/kg, i.p.) was administrated to all mice to precipitate opioid withdrawal. Mouse activity was digitally recorded and evaluated later for an established record of withdrawal behaviors for 15 min [39]. Immediately upon injection of naloxone, all mice were scored for number of jumps, forepaw tremor, wet dog shakes, straightening, rearing, forepaw licking, teeth chattering, and the presence (as +/−) and number of soft stools.

mice [5] = assay: Naloxone-precipitated opioid withdrawal (physical dependence); format: in vivo, mouse; details: for Forepaw Tremor: CycloAnt 3 mg/kg (n = 9) or morphine 10 mg/kg (n = 10) i.p. twice daily 4 days + day 5, naloxone 10 mg/kg i.p. 120 min later, scored 15 min, average; for Forepaw Licking Frequency / Jumping Frequency / Number of soft stools / Presence of diarrhea / Rearing Frequency / Straightening / Teeth Chattering Frequency / Wet Dog Shakes: as E25
Procedure: as §3

MOR [6] = molecular target: T1, MOR (Homo sapiens, UniProt P35372); details: receptor-binding assay; cited from earlier work
Source text: However, that cyclic peptide has a sequence of Tyr-[D-Lys-Dap(Ant)-Tyr-Gly], differing from the sequence Tyr-[D-Lys-Dap(Ant)-Thr-Gly] identified in this study. The di ...

MOR [7] = molecular target: T1, MOR; assay: SAFETYscan cAMP assay, agonist mode, cells overexpressing MOR; format: cell-based; details: cells overexpressing receptor, read-out: MOR agonism EC50
Procedure: (§4) The potential interaction of CycloAnt with a panel of 47 protein targets, including GPCRs, kinases, nuclear hormone receptors, ion channels, and enzymes, was assessed by assays included in the SAFETYscan service from Eurofins DiscoverX. CycloAnt was tested in both agonist and antagonist modes for each representative GPCRs (see Supplemental Material S9–S11).
(§5) CycloAnt interactions with a broad set of molecular targets were determined with the Safety47 Panel Dose Response, using the SAFETYscan provided by Eurofins DiscoverX. This panel utilizes 78 assays at 47 protein targets, including GPCRs, kinases, nuclear hormone receptors, ion channels, and enzymes. […] CycloAnt only interacted with MOR and DOR in the panel, showing agonist activity at both receptors using the cAMP assay. […] This discrepancy on the function at DOR may be accounted for receptor reserve, as a very weak partial agonist/antagonist can appear as a full agonist when receptor reserve is present. […] Regardless, consistent with the SAFETYscan results, CycloAnt was not found to produce any significant biological activity at any other targets in this study than DOR and MOR.

DOR = DOR (Homo sapiens, UniProt P41143); assay: SAFETYscan cAMP assay, agonist mode, cells overexpressing DOR; format: cell-based; details: cells overexpressing receptor, read-out: DOR agonism EC50
Procedure: as §4, §5

[8] = tested on: panel of 47 protein targets, including GPCRs, kinases, nuclear hormone receptors, ion channels, and enzymes; assay: Eurofins DiscoverX SAFETYscan Safety47 panel, agonist and antagonist modes; details: 78 assays at 47 targets, other than MOR and DOR
Procedure: as §4, §5

T1 sequence (P35372 whole entry): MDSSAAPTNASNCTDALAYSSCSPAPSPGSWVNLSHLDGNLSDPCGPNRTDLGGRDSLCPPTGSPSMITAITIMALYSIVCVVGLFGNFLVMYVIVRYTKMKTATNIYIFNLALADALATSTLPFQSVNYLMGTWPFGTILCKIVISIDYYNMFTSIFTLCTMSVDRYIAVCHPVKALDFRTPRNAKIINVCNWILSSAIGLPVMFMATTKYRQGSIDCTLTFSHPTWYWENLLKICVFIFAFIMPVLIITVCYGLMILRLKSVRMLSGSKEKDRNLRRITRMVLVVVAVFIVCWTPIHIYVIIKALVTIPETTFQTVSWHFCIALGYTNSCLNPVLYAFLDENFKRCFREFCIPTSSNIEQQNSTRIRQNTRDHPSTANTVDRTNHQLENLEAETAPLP
DOR, sequence (P41143 whole entry): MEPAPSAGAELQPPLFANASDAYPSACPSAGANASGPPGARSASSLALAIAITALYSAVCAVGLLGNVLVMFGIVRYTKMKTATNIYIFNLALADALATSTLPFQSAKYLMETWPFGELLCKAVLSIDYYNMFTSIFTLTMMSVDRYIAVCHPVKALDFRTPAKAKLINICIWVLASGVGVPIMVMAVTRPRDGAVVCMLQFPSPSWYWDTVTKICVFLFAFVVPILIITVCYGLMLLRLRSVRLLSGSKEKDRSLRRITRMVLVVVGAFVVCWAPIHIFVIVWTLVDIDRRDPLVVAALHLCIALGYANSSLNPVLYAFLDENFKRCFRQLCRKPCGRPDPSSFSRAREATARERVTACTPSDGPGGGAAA

| Compound | Time of peak antinociception after administration (C57BL/6J male mice; i.p., 55 °C WWTW) | Effect on breathing rate compared to vehicle (C57BL/6J mice [1]) | Effect on ambulation (hyperlocomotion) (C57BL/6J mice [2]) | Day 5 tail withdrawal latency, 48 °C warm water stimulus (mice [3]) | Opioid-induced hyperalgesia after chronic administration (mice [3]) | Antinociceptive tolerance on day 5 (mice [4]) | Forepaw Tremor (mice [5]) | Forepaw Licking Frequency (mice [5]) | Jumping Frequency (mice [5]) | Number of soft stools (mice [5]) | Presence of diarrhea (mice [5]) | Rearing Frequency (mice [5]) | Straightening (mice [5]) | Teeth Chattering Frequency (mice [5]) | Wet Dog Shakes (mice [5]) | also measured |
| --- | --- | --- | --- | --- | --- | --- | --- | --- | --- | --- | --- | --- | --- | --- | --- | --- |
| CN1CC[C@]23c4c5ccc(O)c4O[C@H]2[C@@H](O)C=C[C@H]3[C@H]1C5 [morphine, reference compound] | 30 min | produced significant dose and time-dependent respiratory depression | significantly increased ambulation | 4.35 ± 0.47 s | induced significant hyperalgesia | significant reductions in the tail-withdrawal latency | 66 * | 1.7 * | 41.6 * | 5.4 * | yes | 22.2 * | 1.1 | 9.5 * | 1.3 | ED50 (C57BL/6J male mice; Mus musculus, ip, 0.5 h, i.p., male C57BL/6J mice, 55 °C WWTW, at peak effect (morphine 30 min), read-out: Antinociceptive ED50 (and 95% confidence interval)): 4.12 mg/kg |
| Leu-[D-Lys-Dap(Ant)-Thr-Gly] (lariat or depsi) [CycloAnt-Leu, side-to-tail cyclic pentapeptide analog] | ≤ 20 min |  |  |  |  |  |  |  |  |  |  |  |  |  |  | Duration of significant antinociception compared to vehicle (C57BL/6J male mice; CycloAnt 3 mg/kg i.p., CycloAnt-Leu 100 mg/kg i.p., p < 0.05 Dunnett): 50 min; Fold less potent than morphine (ED50) (C57BL/6J male mice; i.p., 55 °C WWTW): 9.3 fold; Antinociceptive ED50 (and 95% confidence interval) (C57BL/6J male mice; i.p., male C57BL/6J mice, 55 °C WWTW, at peak effect (morphine 30 min)): 38.3 (18.7–127.1) mg/kg |
| Tyr-[D-Lys-Dap(Ant)-Tyr-Gly] |  |  |  |  |  |  |  |  |  |  |  |  |  |  |  | Binding affinity for the MOR (MOR [6]): 14 nM |
| C[C@@H](O)[C@@H]1NC(=O)[C@H](CNC(=O)c2ccccc2N)NC(=O)[C@H](NC(=O)[C@@H](N)Cc2ccc(O)cc2)CCCCNC(=O)CNC1=O [CycloAnt, Tyr-[D-Lys-Dap(Ant)-Thr-Gly]] (H-Y[dK][Dap](2Abz)TG; lactam 2-C) |  | did not significantly impair breathing | induced significant hyperlocomotor activity | 9.02 ± 0.83 s | did not induce significant OIH | significant reductions in the tail-withdrawal latency | 23.7 † | 11.2 † | 1.89 † | 6.67 * | yes | 17.8 * | 1.22 | 0 † | 2.22 | EC50 (MOR [7]): 14 nM; EC50 (DOR): 3.36 nM; Agonist or antagonist activity at other panel targets [8]: did not produce agonist or antagonist activity at any other target tested in this panel; Ambulation compared with morphine (C57BL/6J mice [2]; after 20 min to end of testing period, p < 0.05 Tukey): significantly less than those induced by morphine |
